Several values for one entry are separate records, joined by “and”; a condition that tells them apart may be missing. Equal entries are not always repeated.
Experiments:
rats [1] = test: Sciatic nerve ligation model of neuropathic pain (Bennett); type: in vivo, rat; conditions: i.p. or p.o., doses ranging from 1-150 mg/kg
Description: Sciatic Nerve Ligation Model of Neuropathic Pain.
As previously described in detail by Bennett and Xie (Bennett G. J.; Xie Y-K. A peripheral mononeuropathy in rat that produces disorders of pain sensation like those seen in man. Pain 1988, 33, 87-107), in anesthetized rats, a 1.5 cm incision was made 0.5 cm below the pelvis and the biceps femoris and the gluteous superficialis (right side) were separated. The sciatic nerve was exposed, isolated, and four loose ligatures (5-0 chromic catgut) with 1 mm spacing were placed around it. The rats were allowed to recover and then placed in a cage with soft bedding for 14 days before behavioral testing for mechanical allodynia as described above. In addition, animals were also tested for cold allodynia by dipping their hind paw in a cold-water bath (4.5° C.) and determining the paw withdrawal latency.

rats [2] = test: Spinal nerve (L5/L6) ligation model of neuropathic pain (Chung); type: in vivo, rat; conditions: i.p. or p.o., doses ranging from 1-150 mg/kg
Description: Spinal Nerve (L5/L6) Ligation Model of Neuropathic Pain.
As previously described in detail by Kim and Chung (Kim S. H.; Chung J. M. An experimental model for peripheral neuropathy produced by segmental spinal nerve ligation in the rat. Pain 1992, 50, 355-363), a 1.5 cm incision was made dorsal to the lumbosacral plexus. In anesthetized rats, the paraspinal muscles (left side) were separated from the spinous processes, the L5 and L6 spinal nerves isolated, and tightly ligated with 3-0 silk threads. Following hemostasis, the wound was sutured and coated with antibiotic ointment. The rats were allowed to recover and then placed in a cage with soft bedding for 14 days before behavioral testing for mechanical allodynia.

[3] = test system: Acidic mammalian chitinase (AMCase); test: Murine asthma model: AMCase measurement in BAL fluid; type: in vivo, mouse; conditions: 30 mg/kg group, p<0.01
Experimental: (§1) Animals were sensitized to OVA on day 0 and 7 with an i.p. injection of 8 μg OVA in 2 mg alum. On days 14 and 16, animals received intra-nasal challenge of 0.3 μg OVA in 50 μl sterile PBS. Animals were dosed i.p. with a representative compound of formula (I), Example 179, (dissolved with 0.5% HMPC, 0.02% Tween 80 in water) twice per day at doses of 3, 10, and 30 mg/kg/dose beginning the afternoon of day 13. The final dose of compound was administered 30 minutes prior to measurement of airway hyperresponsiveness (AHR). Dexamethasone was administered orally once a day on days 13-17 at a dose of 3 mg/kg. All endpoints were analyzed on day 17, 24 hours after the second OVA challenge. AHR was assessed using unconscious restrained whole body plethysmography. Briefly, a surgical plane of anesthesia was induced with an i.p. injection of ketamine and xylazine. A tracheal canula was surgically inserted between the third and fourth tracheal rings. […] Pressure in the lung and flow within the plethysmograph were measured using transducers, and lung resistance was calculated as pressure/flow using Biosystem Xa software. Baseline resistance as well as resistance following challenge with methacholine (3, 10 or 30 mg/mL) that was delivered with an inline ultrasonic-nebulizer were measured. […] Lavage fluid was analyzed for IL-13, AMCase, Muc5ac and cellular infiltrates. […]

Balb/c mice = test: Murine model of acute asthma: airway hyperresponsiveness (lung resistance); type: in vivo, mouse; conditions: OVA-challenged mice
Description: Murine Asthma Model of Acute Asthma
Female Balb/c mice were purchased from Taconic and housed at Abbott Bioresearch Center. Animals were utilized at 8-12 weeks of age. All protocols were approved by the Institutional Animal Care and Use Committee (IACUC). Dexamethasone (Dex), and ovalbumin (OVA) were purchased from Sigma. Endotoxin was removed from ovalbumin using DetoxiGel (Pierce) according to manufacturer's protocol and the final material contained less than 0.1 EU/mg protein. Alum Imject was purchased from Pierce.
Animals were sensitized to OVA on day 0 and 7 with an i.p. injection of 8 μg OVA in 2 mg alum. On days 14 and 16, animals received intra-nasal challenge of 0.3 μg OVA in 50 μl sterile PBS. […] All endpoints were analyzed on day 17, 24 hours after the second OVA challenge. AHR was assessed using unconscious restrained whole body plethysmography. […] Pressure in the lung and flow within the plethysmograph were measured using transducers, and lung resistance was calculated as pressure/flow using Biosystem Xa software. Baseline resistance as well as resistance following challenge with methacholine (3, 10 or 30 mg/mL) that was delivered with an inline ultrasonic-nebulizer were measured. […] Lavage fluid was analyzed for IL-13, AMCase, Muc5ac and cellular infiltrates. […]

MUC5AC = test: Murine asthma model: MUC5AC measurement in BAL; type: in vivo, mouse; parameters: dose or concentration left out as unconfirmed
Experimental: as §1, with “Animals were dosed i.p. with a representative compound of formula (I), Example 179, (dissolved with 0.5% HMPC, 0.02% Tween 80 in water) twice per day at doses of 3, 10, and 30 mg/kg/dose beginning the afternoon of day 13.” left out
Concentrations of the mucin gene MUC5AC were quantitated by ELISA format. […] The reaction was stopped using 1M H2SO4 and then read in a spectrophotometer at OD 450 nm.

IL-13 = test: Murine asthma model: IL-13 measurement in bronchoalveolar lavage fluid; type: in vivo, mouse
Experimental: Animals were sensitized to OVA on day 0 and 7 with an i.p. injection of 8 μg OVA in 2 mg alum. On days 14 and 16, animals received intra-nasal challenge of 0.3 μg OVA in 50 μl sterile PBS. Animals were dosed i.p. with a representative compound of formula (I), Example 179, (dissolved with 0.5% HMPC, 0.02% Tween 80 in water) twice per day at doses of 3, 10, and 30 mg/kg/dose beginning the afternoon of day 13. The final dose of compound was administered 30 minutes prior to measurement of airway hyperresponsiveness (AHR). Dexamethasone was administered orally once a day on days 13-17 at a dose of 3 mg/kg. All endpoints were analyzed on day 17, 24 hours after the second OVA challenge. AHR was assessed using unconscious restrained whole body plethysmography. Briefly, a surgical plane of anesthesia was induced with an i.p. injection of ketamine and xylazine. A tracheal canula was surgically inserted between the third and fourth tracheal rings. Spontaneous breathing was prevented by an intravenous (i.v.) jugular vein injection of pancuronium bromide. Animals were placed in a whole body plethysmograph (Buxco) and mechanically ventilated with 0.2 mL room air at 150 breaths per minute with a volume-controlled ventilator (Harvard Apparatus). Pressure in the lung and flow within the plethysmograph were measured using transducers, and lung resistance was calculated as pressure/flow using Biosystem Xa software. Baseline resistance as well as resistance following challenge with methacholine (3, 10 or 30 mg/mL) that was delivered with an inline ultrasonic-nebulizer were measured. Upon completion of pulmonary function testing, the lungs were lavaged 4 times with 0.5 mL sterile PBS. Lavage fluid was analyzed for IL-13, AMCase, Muc5ac and cellular infiltrates. The efficacy of the test compound was tested at doses of 3, 10 and 30 mg/kg b.i.d. (6, 20, 60 mg/kg/day). […]
IL-13 concentrations in the bronchoalveolar lavage fluid (BAL) were measured by ELISA (R & D Systems) according to manufacturer's instructions.

HCT-116 cells = test: AlamarBlue Cell Viability Assays; type: cell-based; conditions: Homo sapiens, treated 72 hours
Experimental: AlamarBlue Cell Viability Assays
HCT-116 cells (3,000/well; 96-well format) were treated for 72 hours with increasing concentrations of compounds (0.01-30 μM in half-log increments). The cells were then incubated in fresh media with 10% AlamarBlue reagent (Invitrogen #DAL1100). AlamarBlue reactions were incubated according to the manufacturer's instructions (approximately 4 hours) and then analyzed using an fmax fluorescence microplate reader (Molecular Devices) using excitation/emission wavelengths of 544/595 nm. Data were analyzed using SOFTmax PRO software provided by the manufacturer.

[4] = test system: phospho-MCM2 Ser53 in HCT-116 cells; test: Phospho-MCM2 ELISA; type: cell-based; conditions: Homo sapiens, treated 6 hours
Experimental: HCT-116 cells (20,000/well; 96-well format) were treated for 6 hours with increasing concentrations of compounds (0.01-10 μM in half-log increments). After removing the medium/inhibitor, the cells were frozen for 5 minutes and treated on ice with 20 μL of lysis buffer (Invitrogen #FNN0011) for 30 minutes. 80 μL of cold 2% BSA (in PBS) were then added to each well before transferring 80 μL to MCM2 antibody-coated plates (Bethyl #A300-122A, lot A300-122A-1). The plates were incubated overnight at 4° C., washed, and then incubated with the sandwich antibody (1:100 rabbit anti-human phospho-MCM2 Ser53; Bethyl #A300-756A, lot A300-756A-2) for 2 hours at room temperature. After another series of washes the samples are incubated for 1 hour with detection antibody (XSA-grade goat anti-rabbit-HRP, KPL #074-15-061, lot 50884, diluted to 2 μg/mL in 2% BSA). Plates were washed, developed using luminescence substrate (SuperSignal Pico for ELISA, Pierce #37069, Lot. HB101408), and read on a Molecular Devices M5 luminometer.

Cdc7/Dbf4 = Cdc7/Dbf4 (Homo sapiens (Human), UniProt O00311); test: Cdc7 Inhibition Assay; type: biochemical; conditions: 11 data point; read-out: Ki (μM) 11 data point;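 note: reaction mixtures incubated 30 min on streptavidin-coated plates, then quantified by scintillation counting, with inhibition curves fitted by non-linear regression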
Sequence of Cdc7/Dbf4 (O00311 whole entry): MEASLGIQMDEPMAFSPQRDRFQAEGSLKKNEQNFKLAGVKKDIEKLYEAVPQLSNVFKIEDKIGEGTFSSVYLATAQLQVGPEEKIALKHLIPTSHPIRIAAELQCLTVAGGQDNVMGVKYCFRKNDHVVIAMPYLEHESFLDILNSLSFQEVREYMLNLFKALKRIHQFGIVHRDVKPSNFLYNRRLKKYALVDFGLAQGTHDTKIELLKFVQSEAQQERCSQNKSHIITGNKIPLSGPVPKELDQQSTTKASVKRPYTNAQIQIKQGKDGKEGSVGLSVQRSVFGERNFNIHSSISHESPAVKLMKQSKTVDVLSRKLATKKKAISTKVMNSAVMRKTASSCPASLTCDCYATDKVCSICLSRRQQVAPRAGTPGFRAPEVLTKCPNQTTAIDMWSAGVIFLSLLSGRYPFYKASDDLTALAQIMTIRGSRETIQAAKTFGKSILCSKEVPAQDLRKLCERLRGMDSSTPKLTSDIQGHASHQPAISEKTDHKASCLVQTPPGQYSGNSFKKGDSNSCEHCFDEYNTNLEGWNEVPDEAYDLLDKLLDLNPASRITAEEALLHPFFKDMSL
Sequence of Cdc7/Dbf4 (Q9UBU7 whole entry partner): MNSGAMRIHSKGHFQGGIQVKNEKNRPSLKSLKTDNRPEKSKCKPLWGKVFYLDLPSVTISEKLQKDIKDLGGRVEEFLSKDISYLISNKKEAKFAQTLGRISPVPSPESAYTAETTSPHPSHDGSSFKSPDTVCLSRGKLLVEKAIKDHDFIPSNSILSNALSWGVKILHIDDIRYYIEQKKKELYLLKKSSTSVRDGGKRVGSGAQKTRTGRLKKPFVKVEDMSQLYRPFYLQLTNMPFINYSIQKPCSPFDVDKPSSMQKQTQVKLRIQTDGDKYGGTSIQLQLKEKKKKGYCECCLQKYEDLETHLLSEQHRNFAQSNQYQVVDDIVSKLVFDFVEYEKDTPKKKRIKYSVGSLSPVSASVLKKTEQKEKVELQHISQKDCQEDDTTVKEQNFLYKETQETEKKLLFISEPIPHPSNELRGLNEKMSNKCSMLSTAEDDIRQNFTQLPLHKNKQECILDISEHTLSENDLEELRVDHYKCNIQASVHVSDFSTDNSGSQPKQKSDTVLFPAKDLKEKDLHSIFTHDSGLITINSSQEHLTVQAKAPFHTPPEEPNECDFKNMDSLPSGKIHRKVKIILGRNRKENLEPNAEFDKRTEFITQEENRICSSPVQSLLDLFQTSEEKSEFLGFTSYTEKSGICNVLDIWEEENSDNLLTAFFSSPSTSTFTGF
Experimental: The reactions were incubated for 30 minutes on streptavidin-coated plates, washed, and quantified using a TopCount scintillation plate reader (Packard). IC50 values are determined via non-linear regression fitting of the data.

| SMILES | inhibition of tactile allodynia (rats [1]) | inhibition of tactile allodynia (rats [2]) | EC50 (HCT-116 cells) [nM] | EC50 [4] [nM] | Ki (Cdc7/Dbf4) [µM] | other results |
| --- | --- | --- | --- | --- | --- | --- |
| O=C(N[C@H](CO)c1ccccc1)c1cc(-c2ccc3[nH]ncc3c2)on1 [Example 160, N-[(1S)-2-hydroxy-1-phenylethyl]-5-(1H-indazol-5-yl)isoxazole-3-carboxamide] | greater than 30% | greater than 30% | – | – | – | – |
| O=C(N[C@H](CCO)c1ccccc1)c1cc(-c2ccc3[nH]ncc3c2)on1 [Example 179, N-[(1R)-3-hydroxy-1-phenylpropyl]-5-(1H-indazol-5-yl)isoxazole-3-carboxamide] | greater than 30% | greater than 30% | – | – | – | inhibition of AMCase activity induction in BAL fluid [3]: 45%; methacholine-induced airways resistance (Balb/c mice; i.p. twice per day, tested 3, 10, 30 mg/kg, printed 'doses ranging between 1 and 100 mg/kg', OVA 6.90, PBS 4.65): 4.55 cm H2O/mL/sec and 4.77 cm H2O/mL/sec; reduction of MUC5AC levels (MUC5AC): 35%; inhibition of IL-13 induction in BAL fluid (IL-13; 3 mg/kg dose group): no significant inhibition; inhibition of IL-13 induction in BAL fluid (IL-13; 10 mg/kg dose group): no significant inhibition; inhibition of IL-13 induction in BAL fluid (IL-13; 30 mg/kg dose, p<0.05): 60% |
| Nc1n[nH]c2ccc(-c3nnn(Cc4ccccc4)c3Cc3ccccc3)cc12 [Example 405, 5-(1,5-dibenzyl-1H-1,2,3-triazol-4-yl)-1H-indazol-3-amine] | – | – | 6620 | 3100 | 0.0011 | – |
| Nc1n[nH]c2ccc(-c3nnn(Cc4ccccc4)c3-c3cccs3)cc12 [Example 406, 5-(1-benzyl-5-thien-2-yl-1H-1,2,3-triazol-4-yl)-1H-indazol-3-amine] | – | – | 1500 | 671 | 0.0005 | – |
| Nc1n[nH]c2ccc(-c3nnn(Cc4ccccc4)c3CC3CCCC3)cc12 [Example 409, 5-[1-benzyl-5-(cyclopentylmethyl)-1H-1,2,3-triazol-4-yl]-1H-indazol-3-amine] | – | – | 13500 | > 10000 | 0.02 | – |
| C[C@@H]1C[C@H]2[C@@H]3CCC4=CC(=O)C=C[C@]4(C)[C@@]3(F)[C@@H](O)C[C@]2(C)[C@@]1(O)C(=O)CO [dexamethasone, Dexamethasone, reference compound] | – | – | – | – | – | methacholine-induced airways resistance (Balb/c mice; 3 mg/kg orally once a day): 4.76 cm H2O/mL/sec |

From patent publication US9163007B2, “5-substituted indazoles as kinase inhibitors” (AbbVie Inc., priority 2007, dated 2015)
